Data as given in patent publication US7214505B1, “Cell-based assay for the detection of toxic analytes” (priority 1999, dated 2007).

Assays:
[1] = test system: Vibrio fischeri; test: Microtox test with bacteria immobilized on silica gel (bacteria/silica mixture); type: cell-based; conditions: FIGS. 3, 4 & 5; silica gel
Protocol: For initial testing of such a bacteria/silica mixture, rehydration of freeze-dried luminescent Vibrio fischeri Microtox® reagent is carried out as before, and 4 aliquots are taken. One aliquot of the resultant suspension is mixed with 0.5 g of silica gel, although the amount of silica gel can be varied. After the bacteria are adsorbed onto the silica gel, the resultant mixture is used as the bioluminescent reagent in toxicity assays. Two of the other aliquots are used as controls (with and without silica gel), and the third is tested with toxicant alone.

[2] = test system: Vibrio fischeri; test: Modified Microtox test, toxicant adsorbed onto silica gel then added to bacterial suspension; conditions: FIGS. 1 and 2, 30 minutes incubation
Protocol: Briefly the Microtox® tests used for this study first involve rehydration of freeze-dried luminescent Vibrio fischeri bacteria, i.e. the Microtox® reagent.
The reconstituted bacterial suspension is added to a series dilution of sample in 2% NaCl and incubated for 15° C. for 0.5–15 minutes. The dilutions can be modified to give any desired concentration of sample, and the volume of reagent used per test can also be varied.
After incubation, bioluminescence is measured in a suitable photometer, such as a Deltatox® photometer or that in the Microtox® Model 500 Analyzer.
Data is recorded in terms of decrease luminescence over time.
Generally, these tests are carried out in the presence of an adsorbent which is referred to as using a modified Microtox® test.
In one embodiment of the invention, the solid-phase adsorbent is added to samples of toxicants and left for 30 minutes at ambient temperature. The amount of solid adsorbent and the concentrations of toxicant used are varied.
During this time, rehydration of the freeze-dried Microtox® bacteria as an aqueous suspension is performed, and it is left to stabilize at 15° C. for 15 minutes. […]
At the same time, a control sample of bacteria is monitored for comparison. […]
After 30 minutes of incubation, the bioluminescence is measured using a photometer, and data is recorded in terms of decrease of luminescence over time.

[3] = test system: Vibrio fischeri; test: Toxicity assay with freeze-dried (stabilized) silica-based bacterial reagent vs standard Microtox reagent; type: cell-based; conditions: 10 ppm malathion; FIG. 5
Protocol: Stabilization of the bacteria used in the standard Microtox® test is performed by freeze-drying, and the effects of stabilization on such a bacteria-silica mixture were also investigated. A bacteria-silica mixture at a specific bacteria to silica ratio is subjected to freeze-drying at −30° C. for 6 hours under a vacuum, i.e. 0.1 hPa. Thereafter, the temperature is ramped up to +15° C. at increments of 10° C. per 15 minutes, retaining the vacuum, and then held at +15° C. for 8 hours.
Tests are then run to compare this freeze-dried mixture with the standard Microtox® freeze-dried reagent.

Row | Compound | toxic effect of aqueous toxicant on bioluminescence with bacteria immobilized by adsorption onto a solid surface, compared to free bacteria [1] | toxicity effect (effect on luminescence) when toxicant is adsorbed onto a solid surface, compared to aqueous toxicant [2] | % toxic effect with stabilized silica-based reagent compared to standard Microtox reagent [3]
1 | Oc1ccccc1 [phenol] | enhanced | increased | –
2 | CCOC(=O)CC(SP(=S)(OC)OC)C(=O)OCC (centres unmarked) [malathion] | enhanced | increased | increased
